# Test results taken from patent US5731344A, “Bishispidine compounds, processes for their production and pharmaceutical agents containing these compounds” (Boehringer Mannheim GmbH, priority 1993, dated 1998).
# System: Lysozyme
# Experiment: Test for the inhibitory activity on the formation of AGE (lysozyme dimer formation, SDS gel electrophoresis, densitometry)
# Assay type: biochemical
# Settings: AGE-inhibitory action, lysozyme 20 mg/ml, pH 7.4, 200 mmol/l glucose or xylose, 24 to 120 hours
# Description: Test for the inhibitory activity on the formation of AGE
# Lysozyme is dissolved at a final concentration of 20 mg/ml in 100 mmol/l potassium phosphate buffer, pH 7.4. 5 mmol/l sodium azide is added as a preservative. The formation of AGE is initiated by the addition of 200 mmol/l glucose or xylose. Test substances or the reference substance aminoguanidine are added at different concentrations in order to quantify an inhibitory activity on AGE formation. Solvent controls as well as control mixes are also run in the presence of 200 mmol/l sorbitol or xylite for correction purposes. The incubation period of the reaction mixtures is between 24 and 120 hours depending on the sugar used and is selected in such a way that mainly dimers are formed and other higher molecular oligomerization products are formed only to a slight extent.
# The samples are prepared and SDS gel electrophoresis is carried out according to literature references. Summarized briefly the samples are diluted with the 4-fold amount of sample buffer (50 mmol/l Tris^* acetate, pH 7.5, 1% SDS, 5 mmol/l dithiothreitol) and heated for 3 minutes to 95° C. Aliquots are applied to 8-18% gradient-SDS gels. In order to determine the molecular weight molecular weight markers are also used in the range 14-340 kD. The separation according to molecular weight is achieved under the following operating conditions: voltage: 600 V, current intensity: 50 mA, power: 30 W, run period: ~60 minutes.
# After the gel electrophoresis the gels are fixed according to standard methods and stained with Coomassie Blue. After destaining overnight and drying, the gels are measured densitometrically (Pharmacia Ultra Scan XL using GelScan XL software).
# In order to determine the threshold concentration and the IC50 values of the AGE-inhibitory action of the test substances, the dimer formation is plotted semi-logarithmically against the test concentration of the substance and the above-mentioned parameters are calculated.
IC50,Structure (SMILES),Threshold concentration
5 µM,COc1ccc(C(c2c(O)cc(/C=C/c3ccc(O)c(O)c3)oc2=O)c2c(O)cc(/C=C/c3ccc(O)c(O)c3)oc2=O)cc1OC [Example 6],> 1 µmol/L
4 µM,"O=c1oc(/C=C/c2ccc(O)c(O)c2)cc(O)c1C(c1ccc(Cl)cc1)c1c(O)cc(/C=C/c2ccc(O)c(O)c2)oc1=O [Example 1, 3,3'-(4-Chlorobenzylidene)bis[6-[2-(3,4-dihydroxyphenyl)vinyl]-4-hydroxy-2H-pyran-2-one]]",> 1 µmol/L
22 µM,N#Cc1ccc(C(c2c(O)cc(/C=C/c3ccc(O)c(O)c3)oc2=O)c2c(O)cc(/C=C/c3ccc(O)c(O)c3)oc2=O)cc1 [Example 8],10 µmol/L
2 µM,"CC(C)(C)c1cc(C(c2c(O)cc(/C=C/c3ccc(O)c(O)c3)oc2=O)c2c(O)cc(/C=C/c3ccc(O)c(O)c3)oc2=O)cc(C(C)(C)C)c1O [Example 4, 3,3'-(4-Hydroxy-3,5-(bis-1,1-dimethylethyl)benzylidene]bis[6-[2-(3,4-dihydroxyphenyl)vinyl]-4-hydroxy-2H-pyran-2-one]]",> 1 µmol/L
4 µM,O=c1oc(/C=C/c2ccc(O)c(O)c2)cc(O)c1C(c1ccc(O)c(O)c1)c1c(O)cc(/C=C/c2ccc(O)c(O)c2)oc1=O [Example 7],2 µmol/L
2 µM,"COc1ccc(C(c2c(O)cc(/C=C/c3ccc(O)c(O)c3)oc2=O)c2c(O)cc(/C=C/c3ccc(O)c(O)c3)oc2=O)cc1O [Example 3, 3,3'-(3-Hydroxy-4-methoxybenzylidene)bis[6-[2-(3,4-dihydroxyphenyl)vinyl]-4-hydroxy-2H-pyran-2-one]]",> 1 µmol/L
2 µM,COc1ccc(C(c2c(O)cc(/C=C/c3ccc(O)c(O)c3)oc2=O)c2c(O)cc(/C=C/c3ccc(O)c(O)c3)oc2=O)cc1 [Example 5],> 1 µmol/L

Structure (SMILES),IC50,Threshold concentration
"N=C(N)NN [aminoguanidine, reference compound]",4500 µM,500 µmol/L
